Values of other authors, collected in patent publication US20080200492A1, “METHODS FOR THE TREATMENT OF ALCOHOL ABUSE, ADDICTION AND DEPENDENCY” (priority 2006, published 2008).

Test system: golden hamster
Settings: cited from earlier work

O=c1c(-c2ccc(O)cc2)coc2cc(O[C@@H]3O[C@H](CO)[C@@H](O)[C@H](O)[C@H]3O)ccc12 [Daidzin]
Alcohol drinking, water or food intake: decreases alcohol drinking in the golden hamster, without producing a decrease in water or food intake
